Laboratory results taken from US7176224B2, “Oxazolyl-aryloxyacetic acid derivatives and their use as PPAR agonists” (Eli Lilly and Company, priority 2000, dated 2007).

Test system: db/db mice
Test: Evaluation of glucose levels in db/db mice
Assay type: in vivo
Conditions: 30 mg/kg oral gavage daily for 7 days; 100% = glucose not differing from lean values
Protocol: Five week old male diabetic (db/db) mice [C57BlKs/j-m +/+ Lepr(db), Jackson Laboratory, Bar Harbor, Me.] or lean littermates (DB/?) were housed 6 per cage (10″20″8″ with aspen chip bedding) with food (Purina 5015) and water available at all times. After an acclimation period of 2 weeks, animals were individually identified by ear notches, weighed, and bled via the tail vein for determination of initial glucose levels. Blood was collected (100 μl) from unfasted animals by wrapping each mouse in a towel, cutting the tip of the tail with a scalpel, and milking blood from the tail into a heparinized capillary tube (Fisher) balanced on the edge of the bench. Sample was discharged into a heparinized microtainer with gel separator (VWR) and retained on ice. Plasma was obtained after centrifugation at 4° C. and glucose measured immediately. Remaining plasma was frozen until the completion of the experiment, when glucose and triglycerides were assayed in all samples. […]
Glucose was measured colorimetrically using commercially purchased reagents (Sigma #315-500). […] The absorbance of the dye produced is linearly related to the analyte in the sample. […] Standards (Sigma #339-11, Sigma #16-11, and Sigma #CC0534 for glucose, triglycerides and total cholesterol, respectively), quality control plasma (Sigma # A2034), and samples (2 or 5 μl/well) were measured in duplicate using 200 μl of reagent. […]

**Q.** For `Cc1oc(-c2cccc(-c3ccc(F)cc3)c2)nc1CCOc1ccc(CC(C)(Oc2ccccc2)C(=O)O)cc1` (stereo not shown) [Example 4, 3-(4-{2-[2-(4′-Fluorobiphenyl-3-yl)-5-methyloxazol-4-yl]ethoxy}phenyl)-2-methyl-2-phenoxypropionic acid], which “Glucose Normalisation” value is on record?
**A.** Its value is 91%.
